Assay results published in PubChem BioAssay AID1963849 (Molecular Pharmacology Branch, DTP, NCI, 2024).

Tested on: 299254-011-R-J1-PDC complex spheroid viability
Experiment: Anticancer human tumor 299254-011-R-J1-PDC patient-derived melanoma cell line growth inhibition [POLQ]
Settings: for IC50: curve of first compound; for viability, T/C: stronger effect = lower value
Procedure, shortened: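 Three-cell-type spheroids modelling solid tumor plus stroma served as the readout system; POL inhibitors were tested individually and in combination, concentration ranges set by clinical Cmax where known.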
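Further: spheroids exposed to drugs for one week before measurement.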
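Wherever viability, T/C is given: percent viability relative to DMSO vehicle control taken as 100%.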

Cn1ncnc1[C@H]1c2n[nH]c(=O)c3cc(F)cc(c23)N[C@@H]1c1ccc(F)cc1 + Cc1cccc(N(C)C(=O)C2C(O)CCN2c2nc(C)cc(C(F)(F)F)c2C#N)c1 gave an IC50 (second compound 0.0316 µM) of over 100 nM, an IC50 (second compound 0.1 µM) of over 100 nM and an IC50 (second compound 0.316 µM) of over 100 nM. For the same compound, the IC50 (second compound 1 µM) was over 100 nM, the IC50 (second compound 3.16 µM) was over 100 nM and the IC50 (second compound 10 µM) was over 100 nM. The viability, T/C (second compound 0.0316 µM, first compound 0.000316 µM) was 102%, the viability, T/C (second compound 0.0316 µM, first compound 0.001 µM) was 91.6% and the viability, T/C (second compound 0.0316 µM, first compound 0.00316 µM) was 95.9%. For the same compound, the viability, T/C (second compound 0.0316 µM, first compound 0.01 µM) was 110%, the viability, T/C (second compound 0.0316 µM, first compound 0.0316 µM) was 112% and the viability, T/C (second compound 0.0316 µM, first compound 0.1 µM) was 113%. The viability, T/C (second compound 0.1 µM, first compound 0.000316 µM) was 119%, the viability, T/C (second compound 0.1 µM, first compound 0.001 µM) was 108% and the viability, T/C (second compound 0.1 µM, first compound 0.00316 µM) was 117%. For the same compound, the viability, T/C (second compound 0.1 µM, first compound 0.01 µM) was 106%, the viability, T/C (second compound 0.1 µM, first compound 0.0316 µM) was 114% and the viability, T/C (second compound 0.1 µM, first compound 0.1 µM) was 119%. The viability, T/C (second compound 0.316 µM, first compound 0.000316 µM) was 108%, the viability, T/C (second compound 0.316 µM, first compound 0.001 µM) was 96.4% and the viability, T/C (second compound 0.316 µM, first compound 0.00316 µM) was 102%. It also gave a viability, T/C (second compound 0.316 µM, first compound 0.01 µM) of 114%, a viability, T/C (second compound 0.316 µM, first compound 0.0316 µM) of 106% and a viability, T/C (second compound 0.316 µM, first compound 0.1 µM) of 102%. The viability, T/C (second compound 1 µM, first compound 0.000316 µM) was 111%, the viability, T/C (second compound 1 µM, first compound 0.001 µM) was 116% and the viability, T/C (second compound 1 µM, first compound 0.00316 µM) was 103%. For the same compound, the viability, T/C (second compound 1 µM, first compound 0.01 µM) was 114%, the viability, T/C (second compound 1 µM, first compound 0.0316 µM) was 102% and the viability, T/C (second compound 1 µM, first compound 0.1 µM) was 94.1%. For the same compound, the viability, T/C (second compound 3.16 µM, first compound 0.000316 µM) was 90.1%, the viability, T/C (second compound 3.16 µM, first compound 0.001 µM) was 109% and the viability, T/C (second compound 3.16 µM, first compound 0.00316 µM) was 103%. For the same compound, the viability, T/C (second compound 3.16 µM, first compound 0.01 µM) was 111%, the viability, T/C (second compound 3.16 µM, first compound 0.0316 µM) was 122% and the viability, T/C (second compound 3.16 µM, first compound 0.1 µM) was 114%. The viability, T/C (second compound 10 µM, first compound 0.000316 µM) was 93.6%, the viability, T/C (second compound 10 µM, first compound 0.001 µM) was 107% and the viability, T/C (second compound 10 µM, first compound 0.00316 µM) was 113%. It also gave a viability, T/C (second compound 10 µM, first compound 0.01 µM) of 94%, a viability, T/C (second compound 10 µM, first compound 0.0316 µM) of 98% and a viability, T/C (second compound 10 µM, first compound 0.1 µM) of 99%.
CC(=O)O[C@H]1C(=O)[C@@]2(C)[C@H]([C@H](OC(=O)c3ccccc3)[C@]3(O)C[C@H](OC(=O)[C@H](O)[C@@H](NC(=O)c4ccccc4)c4ccccc4)C(C)=C1C3(C)C)[C@]1(OC(C)=O)CO[C@@H]1C[C@@H]2O + COC1C(OC(N)=O)C(O)C(Oc2ccc3c(O)c(NC(=O)c4ccc(O)c(CC=C(C)C)c4)c(=O)oc3c2C)OC1(C)C showed an IC50 (second compound 0.0316 µM) of 108 nM, an IC50 (second compound 0.1 µM) of 70.7 nM and an IC50 (second compound 0.316 µM) of 71.9 nM. The IC50 (second compound 1 µM) was 71.9 nM, the IC50 (second compound 3.16 µM) was 124 nM and the IC50 (second compound 10 µM) was 90.2 nM. For the same compound, the viability, T/C (second compound 0.0316 µM, first compound 0.00949 µM) was 77.3%, the viability, T/C (second compound 0.0316 µM, first compound 0.03 µM) was 75.9% and the viability, T/C (second compound 0.0316 µM, first compound 0.0949 µM) was 53.4%. The viability, T/C (second compound 0.0316 µM, first compound 0.3 µM) was 23.2%, the viability, T/C (second compound 0.0316 µM, first compound 0.949 µM) was 21.8% and the viability, T/C (second compound 0.0316 µM, first compound 3 µM) was 15.9%. For the same compound, the viability, T/C (second compound 0.1 µM, first compound 0.00949 µM) was 97%, the viability, T/C (second compound 0.1 µM, first compound 0.03 µM) was 63.3% and the viability, T/C (second compound 0.1 µM, first compound 0.0949 µM) was 46.7%. The viability, T/C (second compound 0.1 µM, first compound 0.3 µM) was 30.9%, the viability, T/C (second compound 0.1 µM, first compound 0.949 µM) was 21.4% and the viability, T/C (second compound 0.1 µM, first compound 3 µM) was 16%. For the same compound, the viability, T/C (second compound 0.316 µM, first compound 0.00949 µM) was 101%, the viability, T/C (second compound 0.316 µM, first compound 0.03 µM) was 73.1% and the viability, T/C (second compound 0.316 µM, first compound 0.0949 µM) was 41.4%. The viability, T/C (second compound 0.316 µM, first compound 0.3 µM) was 29.5%, the viability, T/C (second compound 0.316 µM, first compound 0.949 µM) was 21.2% and the viability, T/C (second compound 0.316 µM, first compound 3 µM) was 20%. For the same compound, the viability, T/C (second compound 1 µM, first compound 0.00949 µM) was 95.1%, the viability, T/C (second compound 1 µM, first compound 0.03 µM) was 70% and the viability, T/C (second compound 1 µM, first compound 0.0949 µM) was 43.8%. It also gave a viability, T/C (second compound 1 µM, first compound 0.3 µM) of 27.1%, a viability, T/C (second compound 1 µM, first compound 0.949 µM) of 22.2% and a viability, T/C (second compound 1 µM, first compound 3 µM) of 18.3%. For the same compound, the viability, T/C (second compound 3.16 µM, first compound 0.00949 µM) was 90.7%, the viability, T/C (second compound 3.16 µM, first compound 0.03 µM) was 68.3% and the viability, T/C (second compound 3.16 µM, first compound 0.0949 µM) was 61.3%. For the same compound, the viability, T/C (second compound 3.16 µM, first compound 0.3 µM) was 31.5%, the viability, T/C (second compound 3.16 µM, first compound 0.949 µM) was 22.6% and the viability, T/C (second compound 3.16 µM, first compound 3 µM) was 16.8%. For the same compound, the viability, T/C (second compound 10 µM, first compound 0.00949 µM) was 86.6%, the viability, T/C (second compound 10 µM, first compound 0.03 µM) was 84.9% and the viability, T/C (second compound 10 µM, first compound 0.0949 µM) was 47.1%. It also gave a viability, T/C (second compound 10 µM, first compound 0.3 µM) of 28%, a viability, T/C (second compound 10 µM, first compound 0.949 µM) of 21.6% and a viability, T/C (second compound 10 µM, first compound 3 µM) of 17.6%.
